Read-outs that look alike come from different tables or passages of the source.

In assay [1] the test system is Arabidopsis thaliana seeds (WT Col-0, CsPYL1 and CsPYL1^5m lines). The experiment in a line: Seed germination assay. The class given is in vivo. The conditions noted are these: Arabidopsis thaliana. The protocol:
For seed germination assays, seeds were stratified in the dark at 4°C for 3 days. Approximately 100 seeds of each genotype were sown on MS plates supplemented with six different ligand concentrations. The experiments were repeated three times. To score seed germination, radical emergence was analyzed at 24 hours after sowing.

Assay [2] addresses T1, ABI1 with AtPYL1 (Arabidopsis thaliana, UniProt Q8VZS8).
T1 construct: His; made in house
Briefly: PP2C inhibition assay, ABI1 with AtPYL1. The assay is classed as biochemical. As to the method:
(§1) His-tagged receptors and phosphatases were purified using nickel–nitrilotriacetic acid (Ni-NTA) affinity chromatography. Protein integrity was analyzed by SDS–polyacrylamide gel electrophoresis, followed by InstantBlue staining. Phosphatase activity was measured using p-Nitrophenyl Phosphate (pNPP) (25 mM) as substrate, 10 mM MnCl2,1 μM PP2C, and 2 μM of the indicated receptors. Proteins were incubated with the ligands for 10 min at room temperature. pNPP was then added to start the reactions, and the absorbance at 405 nm was monitored for 20 min in a ViktorX5 plate reader. Assays were repeated twice. For dose-response experiments, IC50 values were obtained with GraphPad Prism 9 using a nonlinear regression curve fit. Each ligand concentration was tested in triplicate. Phosphatase activity of ABI1 was measured using RRA(phosphoT)VA peptide as a substrate, as described ([27]). […]
(§2) (D) Dose response analysis of iSB09 or ABA-dependent inhibition of ABI1 (blue and black lines, respectively) in presence of either AtPYL1 or AtPYR1. Values (average of duplicates) show PP2C activity after incubation with the indicated concentration of ligand and receptor at 1:2 ratio (1 µM phosphatase:2 µM receptor). […]
(§3) whereas with AtPYR1 was 200 nM and 213 nM, for ABA and iSB09, respectively. Ligands were assayed

Assay [3] has as its target AtPYL5:ΔNHAB1 (Arabidopsis thaliana, UniProt Q9FLB1). The experiment in a line: Native red electrophoresis of ligand-induced ternary complex.
Description: Electrophoresis was performed at a constant current of 25 mA for 150 min at 4°C. Proteins were detected in gel by InstantBlue staining, and band quantification was performed using the ImageJ software. To obtain apparent Kd values, the proportion of ternary complex formed (fraction bound) and the ABA or iSB09 free concentration in each lane were calculated and plotted as represented in Fig. 3 (E and F). Then, the dose-response curves were fitted to the classical Hill equation using the GraphPad Prism software.
The test system of assay [4] is AtHAB1ΔN with CsPYL1^5m. Briefly: PP2C inhibition assay, HAB1 with CsPYL1^5m. The assay is classed as biochemical, Citrus sinensis (CsPYL1^5m); Arabidopsis thaliana (HAB1). The protocol:
His-tagged receptors and phosphatases were purified using nickel–nitrilotriacetic acid (Ni-NTA) affinity chromatography. Protein integrity was analyzed by SDS–polyacrylamide gel electrophoresis, followed by InstantBlue staining. Phosphatase activity was measured using p-Nitrophenyl Phosphate (pNPP) (25 mM) as substrate, 10 mM MnCl2,1 μM PP2C, and 2 μM of the indicated receptors. […] Assays were repeated twice. For dose-response experiments, IC50 values were obtained with GraphPad Prism 9 using a nonlinear regression curve fit. Each ligand concentration was tested in triplicate. Phosphatase activity of ABI1 was measured using RRA(phosphoT)VA peptide as a substrate, as described ([27]).

Assay [5] relates to Nicotiana benthamiana WT plants. Briefly: IR thermography of leaf temperature, N. benthamiana. The assay is classed as in vivo. The conditions noted are these: nontransformed leaves, 24 hours after spraying, 50 μM ABA or 100 μM iSB07 or iSB09, compared to mock. The protocol: IR images were taken using a FLIR […] thermocamera 1 day after the treatment (for N. benthamiana) or 2 and 5 days (for S. lycopersicum). Quantification was performed using the FLIR tools software on fully expanded leaves by analyzing 10 sections per leaf. At least six plants per genotype and treatment were analyzed in each experiment. Experiments were repeated twice. The average plant temperature ± SD of all the plants for each treatment and genotype was calculated and used to report the increase in temperature produced by each treatment. Statistical comparisons among genotypes were performed by either pairwise t tests or one-way ANOVA.

For assay [6], the target named is T2, ABI1 with AtPYR1 (Arabidopsis thaliana, UniProt O49686).
T2 construct: His; made in house
The experiment in a line: PP2C inhibition assay, ABI1 with AtPYR1. The class given is biochemical. As to the method:
as §1, §2, §3

For assay [7], the system named is Arabidopsis thaliana seedlings (WT Col-0, overexpressing lines, receptor mutants). As to conditions: pyr1 pyl1 double mutant ref 36; cited from earlier work.
For assay [8], the target named is T3, ΔNHAB1 with AtPYL10 (Arabidopsis thaliana, UniProt Q8H1R0).
T3 construct: His; made in house
The conditions noted are these: AtPYL10 ref 45; cited from earlier work.

Assay [9] concerns tomato plants. The experiment in a line: IR thermography of leaf temperature, tomato. The class given is in vivo, Solanum lycopersicum. As to conditions: 10 μM, 2 and 5 days after spraying. The protocol: For experiments using N. benthamiana or S. lycopersium, 1-month-old plants grown under long-day conditions (16-hour light/8-hour dark) were sprayed with 10 mM MES (pH 5.7) + 0.02% Silwet L77 supplemented with either 50 μM ABA, or the indicated concentration of iSB07/iSB09 or 0.1% DMSO as a mock-treated control. IR images were taken using a FLIR E95 thermocamera 1 day after the treatment (for N. benthamiana) or 2 and 5 days (for S. lycopersicum). Quantification was performed using the FLIR tools software on fully expanded leaves by analyzing 10 sections per leaf. At least six plants per genotype and treatment were analyzed in each experiment. Experiments were repeated twice. The average plant temperature ± SD of all the plants for each treatment and genotype was calculated and used to report the increase in temperature produced by each treatment. Statistical comparisons among genotypes were performed by either pairwise t tests or one-way ANOVA.
(§4) Fig. S6. QB lacks bioactivity in tomato whereas iSB09 is
(§5) (A) Quantification of the leaf temperature difference at 2 and 5 days after spraying tomato plants with 0.1 % DMSO
(§6) (mock- treated control), 10 µM iSB09 or 10 µM QB.
Asterisk indicates p<0.001 (Student’s t test). Values show individual points and average ± SD (n=4 replicates for mock and chemical treatments). (B) IR-images of representative tomato plants at 2 days after being treated with 0.1 % DMSO
Photographs were taken with white light (leaf panel) or infrared thermography (right panel) using the camera FLIR
HAB1 phosphatase activity in presence of PYL4. IC50 values for iSB09 or QB-dependent inhibition of HAB1 by AtPYL4. Values (average of duplicates) show PP2C activity after incubation with the indicated concentration of ligand and AtPYL4 at 1:2 ratio (1 µM phosphatase:2 µM receptor).
(1 picture or pasted object on this page, not shown here)

Assay [10] deals with T4, ΔNHAB1 with AtPYL1 (Arabidopsis thaliana, UniProt Q8VZS8).
T4 construct: His; made in house
The conditions noted are these: AtPYL1 ref 45; cited from earlier work.

In assay [11] the target is T5, HAB1 with AtPYL4 (Arabidopsis thaliana, UniProt O80920).
T5 construct: His; made in house
Briefly: PP2C inhibition assay, HAB1 with AtPYL4. The class given is biochemical. The conditions noted are these: 1 µM phosphatase:2 µM receptor. As to the method: His-tagged receptors and phosphatases were purified using nickel–nitrilotriacetic acid (Ni-NTA) affinity chromatography. Protein integrity was analyzed by SDS–polyacrylamide gel electrophoresis, followed by InstantBlue staining. Phosphatase activity was measured using p-Nitrophenyl Phosphate (pNPP) (25 mM) as substrate, 10 mM MnCl2,1 μM PP2C, and 2 μM of the indicated receptors. Proteins were incubated with the ligands for 10 min at room temperature. pNPP was then added to start the reactions, and the absorbance at 405 nm was monitored for 20 min in a ViktorX5 plate reader. Assays were repeated twice. For dose-response experiments, IC50 values were obtained with GraphPad Prism 9 using a nonlinear regression curve fit. Each ligand concentration was tested in triplicate. Phosphatase activity of ABI1 was measured using RRA(phosphoT)VA peptide as a substrate, as described ([27]).
as §4, §5, §6
Asterisk indicates p<0.001 (Student’s t test). Values show individual points and average ± SD (n=4 replicates for mock and chemical treatments). (B) IR-images of representative tomato plants at 2 days after being treated with 0.1 % DMSO […]

Assay [12] deals with Arabidopsis thaliana plants (WT Col-0, CsPYL1^5m lines). Briefly: Whole-plant gas exchange, stomatal conductance (Gs). The assay is classed as in vivo. The protocol: A. thaliana seeds were planted in specific gas exchange pots, where above- and below-ground parts can be separated by glass into 2:1 (v:v) peat:vermiculite mixture. The plants were grown in growth chambers (Snijders Scientific, Drogenbos, Belgium) at 12/12 photoperiod, 23/18°C temperature, 160 μmol m^−2 s^−1 light, and 70% relative humidity and were 23 to 28 days old during gas exchange experiments. Whole-rosette stomatal conductances were recorded with an eight-chamber custom-built temperature-controlled gas exchange device as described before ([72]). Plants were inserted into the measurement cuvettes and allowed to stabilize at standard conditions: ambient CO2, ~420 ppm; air temperature, 24° ± 0.5°C; light, 160 μmol m^−2 s^−1; relative air humidity, 66 ± 3%. For sprayings, plants were removed from gas exchange cuvettes, sprayed with respective solutions, and put back into the cuvettes for stomatal conductance recordings for 56 min. To check the long-term effect of compounds on plants, stomatal conductance measurements were performed about 24 and 48 hours after sprayings. In the meantime, plants were kept in growth chambers as described above. Photographs of plants were taken after the experiment, and leaf rosette area was calculated using ImageJ 1.37v [National Institutes of Health (NIH), USA]. Stomatal conductance for water vapor was calculated with a custom-written program as described ([72]).

Assay [13] concerns Arabidopsis thaliana plants. Briefly: IR thermography of leaf temperature, arabidopsis. The class given is in vivo. The conditions noted are these: transgenic CsPYL1^5m lines and Col-0, 50 μM, 24 hours after spraying. The protocol:
A. thaliana plants were grown in a controlled environment growth chamber at 21°/19°C under 8-hour light/16-hour dark photoperiod at 100 μE m^−2 s^−1. IR thermography images of rosette leaves were acquired with a thermal camera FLIR E95 equipped with a 42° lens, 24 hours after spraying 6-week-old plants with 10 mM MES (pH 5.7) + 0.02% Silwet L-77 plus 50 μM ligand or 0.1% DMSO as a control. Images were processed and quantified with the FLIR tools software. The average temperature of 15 different sections taken from four to six leaves per plant was used for quantification. At least six plants per genotype were analyzed, and the experiments were repeated twice. Statistical analysis was performed using GraphPad Prism 9. T test or ANOVA analysis was carried out to identify statistical significance among datasets.

In assay [14] the test system is Arabidopsis thaliana seedlings. Briefly: Root growth assay. The class given is in vivo. The conditions noted are these: 10 μM. The protocol:
Seedlings were grown on vertically oriented Murashige and Skoog (MS) plates for 4 to 5 days. Afterward, seedlings were transferred to MS supplemented with the indicated concentrations of the different ligands and kept on vertical orientation. Ten days later, the plates were scanned on a flatbed scanner to produce image files suitable for quantitative analysis of root growth using the NIH Image software ImageJ. The experiment was performed in triplicate (n = 13 to 16). Statistical comparisons were performed by either pairwise t tests or one-way ANOVA using GraphPad Prism 9.

Assay [15] relates to MAPKKK18 promoter-LUC reporter. Briefly: pMAPKKK18-LUC luciferase reporter assay. The assay is classed as in vivo, Arabidopsis thaliana. As to conditions: 100 μM, 6 hours. The protocol: […]18-LUC seedlings were grown in 24-well plates (25 to 35 seeds per well) filled with 1 ml of liquid MS medium for 7 days. MS medium was replaced with fresh medium supplemented with 100 μM D-luciferin, potassium salt (GoldBio), and the indicated treatments with iSB07, iSB09, or ABA. Seedlings were incubated for 6 hours, and luminescence was recorded with a LAS-3000 imager (Fujifilm) equipped with a charge-coupled device camera using 2-min exposures. Eight-bit images were transformed in rainbow false color and quantified using Fiji. The experiment was repeated at least twice.
Background: A reporter such as luciferase makes a cellular process visible.

T2 sequence (O49686 whole entry): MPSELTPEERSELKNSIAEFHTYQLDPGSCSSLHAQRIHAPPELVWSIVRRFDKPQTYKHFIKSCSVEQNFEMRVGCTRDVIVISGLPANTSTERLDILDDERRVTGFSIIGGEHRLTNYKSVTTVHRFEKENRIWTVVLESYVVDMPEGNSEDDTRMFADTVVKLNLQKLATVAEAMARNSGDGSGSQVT
T2 sequence (P49597 whole entry partner): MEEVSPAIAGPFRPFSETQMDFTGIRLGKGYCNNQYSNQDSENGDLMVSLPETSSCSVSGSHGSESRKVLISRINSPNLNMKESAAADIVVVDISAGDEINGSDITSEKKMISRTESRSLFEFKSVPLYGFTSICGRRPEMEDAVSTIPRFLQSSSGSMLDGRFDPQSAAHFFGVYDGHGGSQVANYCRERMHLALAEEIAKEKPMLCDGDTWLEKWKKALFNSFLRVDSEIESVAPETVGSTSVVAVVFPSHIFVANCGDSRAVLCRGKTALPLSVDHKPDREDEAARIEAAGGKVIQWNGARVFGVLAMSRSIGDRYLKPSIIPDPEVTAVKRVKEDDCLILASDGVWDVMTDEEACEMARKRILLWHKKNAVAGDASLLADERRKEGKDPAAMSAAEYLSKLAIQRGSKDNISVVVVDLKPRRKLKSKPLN
T3 sequence (Q8H1R0 whole entry, stated change not applied): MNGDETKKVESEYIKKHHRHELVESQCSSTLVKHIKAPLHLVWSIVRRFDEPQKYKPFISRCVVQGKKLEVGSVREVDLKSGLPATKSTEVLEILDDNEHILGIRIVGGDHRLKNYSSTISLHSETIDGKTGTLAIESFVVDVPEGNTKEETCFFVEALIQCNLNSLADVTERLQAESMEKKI
T4 sequence (Q8VZS8 whole entry, stated change not applied): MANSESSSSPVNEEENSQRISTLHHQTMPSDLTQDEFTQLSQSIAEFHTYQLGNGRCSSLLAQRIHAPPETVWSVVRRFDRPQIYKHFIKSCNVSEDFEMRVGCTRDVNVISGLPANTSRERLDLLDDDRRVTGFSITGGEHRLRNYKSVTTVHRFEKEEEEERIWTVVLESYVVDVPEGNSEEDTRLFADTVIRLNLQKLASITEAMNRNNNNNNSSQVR
T1 sequence (Q8VZS8 whole entry): as the sequence (Q8VZS8 whole entry, stated change not applied) above
T1 sequence (P49597 whole entry partner): as the sequence (P49597 whole entry partner) above
T5 sequence (Q9CAJ0 179-511): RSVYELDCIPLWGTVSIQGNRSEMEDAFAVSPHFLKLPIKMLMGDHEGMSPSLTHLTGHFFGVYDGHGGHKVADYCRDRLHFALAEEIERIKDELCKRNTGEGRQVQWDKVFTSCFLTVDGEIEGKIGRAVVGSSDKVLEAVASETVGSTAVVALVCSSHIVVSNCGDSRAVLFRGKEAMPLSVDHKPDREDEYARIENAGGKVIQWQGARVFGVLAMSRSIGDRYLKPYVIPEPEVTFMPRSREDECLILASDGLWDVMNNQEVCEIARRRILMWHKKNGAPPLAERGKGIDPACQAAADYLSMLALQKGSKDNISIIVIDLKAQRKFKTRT
T5 sequence (O80920 whole entry): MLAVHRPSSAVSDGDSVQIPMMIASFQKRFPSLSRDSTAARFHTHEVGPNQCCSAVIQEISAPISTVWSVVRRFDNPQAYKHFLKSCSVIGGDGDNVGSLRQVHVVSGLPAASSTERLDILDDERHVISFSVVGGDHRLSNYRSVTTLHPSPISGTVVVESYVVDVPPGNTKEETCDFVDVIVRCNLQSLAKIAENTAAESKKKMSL
Chain of AtPYL5:ΔNHAB1 (Q9FLB1 whole entry, stated change not applied): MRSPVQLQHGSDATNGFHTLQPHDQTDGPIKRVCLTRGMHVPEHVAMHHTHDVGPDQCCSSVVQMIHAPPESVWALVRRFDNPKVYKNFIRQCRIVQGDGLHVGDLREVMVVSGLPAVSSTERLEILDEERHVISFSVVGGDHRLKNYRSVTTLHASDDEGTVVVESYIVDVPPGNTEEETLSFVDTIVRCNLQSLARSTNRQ

By IC50 is commonly meant the concentration that gives 50% inhibition. What is called Kd is a measure of binding affinity in units of concentration. A higher Kd goes with lower affinity. `CC1=CC(=O)CC(C)(C)[C@@]1(O)/C=C/C(C)=C\C(=O)O` [ABA, abscisic acid, reference compound]: the 50% inhibitory concentration (IC50) was found to be 216 nM in assay [1] (read-out: Germination IC50, WT Col-0); 304 nM in assay [1] (read-out: Germination IC50, line expressing CsPYL1); 458 nM in [1] (read-out: Germination IC50, line expressing CsPYL1^5m); 274 nM in assay [2]; 200 nM in [6]. In assay [3], this compound came in with a Kd of 2100 nM. The “IC50 of ABA for CsPYL1^5m compared to WT CsPYL1” value in assay [4] is “fourfold increase”. Besides, the “leaf temperature by thermal imaging” value in assay [5] is on record as “increased leaf temperature”.
For `CCCN1C(=O)CCc2cc(NS(=O)(=O)Cc3c(F)c(F)c(C)c(F)c3F)ccc21` [AMF4], the “effect in pyr1 pyl1 double mutant” value in [7] is “lack effect”.
With `CCCN1C(=O)CCc2cc(NS(=O)(=O)Cc3ccc(C)cc3)ccc21` [QB, quinabactin], the receptor activation result is “not AtPYL10” in assay [8] and “activates AtPYL1” in assay [10]. Further, in assay [9], the “bioactivity in tomato (leaf temperature)” value was “lacked bioactivity”. Moreover, the “effect in pyr1 pyl1 double mutant” value in assay [7] is on record as “lack effect”. The compound also yielded an IC50 in assay [11] of 1880 nM.
On to `Cc1cc(=O)n(C)c2ccc(CNS(=O)(=O)c3ccccc3)cc12` [iSB07], for which the “reduction of stomatal conductance (Gs)” value in assay [12] (WT, spraying with 20 μM) was “not effective”. The “reduction of Gs 24 and 48 hours after spraying” value in assay [12] (transgenic lines, 5 μM) is reported as “nonsignificant”. Also, the “leaf temperature by thermal imaging” value in [13] and in assay [5] was “increased leaf temperature” in each case. Further, the IC50 in assay [1] (WT Col-0, read-out: Germination IC50) worked out at 12700 nM; in assay [1] (line expressing CsPYL1, read-out: Germination IC50), 4030 nM; in assay [1] (line expressing CsPYL1^5m, read-out: Germination IC50), 943 nM. The results for the “inhibition of root growth” value in [14] (CsPYL1^5m lines) and in assay [14] (WT plants) were “marked inhibition” and “did not significantly inhibit”, respectively. Besides, the “induction of LUC relative to iSB09” value in [15] was “approximately fivefold lower”.

The values are drawn from PMC10005185, “Structure-guided engineering of a receptor-agonist pair for inducible activation of the ABA adaptive response to drought” (Science Advances, 2023).
